Here are results for 1 compound from publication PMC9356058, “Homocysteine-targeting compounds as a new treatment strategy for diabetic wounds via inhibition of the histone methyltransferase SET7/9” (Experimental & Molecular Medicine, 2022).

For orientation: IC50 means the point on the concentration scale where inhibition reaches its midpoint.

Each structure is given as a SMILES string.

For the assay, the target named is T1, SET7/9 (Homo sapiens, UniProt Q8WTS6).
T1 sequence (Q8WTS6 1-366): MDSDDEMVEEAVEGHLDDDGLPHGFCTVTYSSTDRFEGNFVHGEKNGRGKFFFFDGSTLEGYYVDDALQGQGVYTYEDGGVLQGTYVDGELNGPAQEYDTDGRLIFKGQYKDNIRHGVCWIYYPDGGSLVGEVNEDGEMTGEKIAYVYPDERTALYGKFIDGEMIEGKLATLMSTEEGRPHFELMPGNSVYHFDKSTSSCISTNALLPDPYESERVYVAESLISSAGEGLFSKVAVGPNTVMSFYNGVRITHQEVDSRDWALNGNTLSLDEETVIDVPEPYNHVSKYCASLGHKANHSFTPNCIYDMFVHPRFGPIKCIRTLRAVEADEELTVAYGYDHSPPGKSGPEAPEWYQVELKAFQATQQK
Put plainly: fluorescence polarization, displacement of SAM-binding site probe. Set-up: gene SETD7; SET7/9 (human recombinant) assay enzyme. (In general: In fluorescence polarisation assays a small probe gives low polarisation when free and higher when bound to something large.)

For `Nc1ncnc2c1ncn2[C@@H]1O[C@H](C[C@@H](N)CC[C@H](N)C(=O)O)[C@@H](O)[C@H]1O` [Sine, 5’-deoxy-5’-(1,4-diamino-4-carboxybutyl)adenosine], the IC50 worked out at 6.17 µM.
